Columns and labels:
PDIA1 [1] = molecular target: T1, PDIA1 (Homo sapiens, UniProt P07237); test: Insulin turbidity assay, disulfide reductase activity; assay type: biochemical; details: insulin substrate, PDIA1 800 nM, reducing conditions
T1 construct: The mature human PDIA1 with an N-terminal His6x-tag was expressed and purified; His6 (N); made in house
Procedure: (§1) To further evaluate the inhibitory effect of punicalin and punicalagin on the enzymatic activity of the two proteins, we performed a different assay using insulin, a physiologically more appropriate substrate. The results obtained are reported in Figure 4 and show again a lesser inhibitory effect of punicalin compared to punicalagin, as observed with the glutathione-based assay.
PDI disulfide reductase activity was assayed by measuring the reduction of insulin catalyzed by PDIs with DTT. A 50 μM stock solution of each PDI was reduced using TCEP (5 mM final concentration) for 90 min at room temperature. […] After incubation, an equal volume of the 2× reaction mixture (consisting of DTT 50 μM and human insulin 0.32 mM) was added. Protein activity was evaluated by monitoring the increase in turbidity of the solutions at 600 nm.
(§2) In both assays, the inhibition constants were extrapolated by GraphPad Prism 8.0 software (GraphPad Software, San Diego, CA, USA), plotting the obtained data as logarithm dose–response curves.

PDIA3 [2] = molecular target: T2, PDIA3 (Homo sapiens, UniProt P30101); test: as above; assay type: biochemical; details: insulin substrate, PDIA3 1600 nM, reducing conditions
T2 construct: The mature recombinant form (devoid of the N-terminal presence) of the human PDIA3 protein was expressed and purified; made in house
T2 sequence (P30101 25-505): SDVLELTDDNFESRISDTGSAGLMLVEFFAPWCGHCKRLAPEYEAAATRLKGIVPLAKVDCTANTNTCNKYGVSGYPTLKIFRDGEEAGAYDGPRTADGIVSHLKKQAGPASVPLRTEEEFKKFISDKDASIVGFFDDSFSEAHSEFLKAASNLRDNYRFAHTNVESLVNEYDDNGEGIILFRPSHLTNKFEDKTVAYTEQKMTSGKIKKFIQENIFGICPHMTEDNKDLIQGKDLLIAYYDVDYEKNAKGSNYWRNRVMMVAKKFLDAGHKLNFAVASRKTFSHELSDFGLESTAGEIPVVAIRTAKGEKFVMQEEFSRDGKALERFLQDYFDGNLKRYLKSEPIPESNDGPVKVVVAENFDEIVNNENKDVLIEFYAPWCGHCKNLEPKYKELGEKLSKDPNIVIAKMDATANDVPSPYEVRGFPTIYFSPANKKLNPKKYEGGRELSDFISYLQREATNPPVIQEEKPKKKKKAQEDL
Procedure: as §1
PDI disulfide reductase activity was assayed by measuring the reduction of insulin catalyzed by PDIs with DTT. A 50 μM stock solution of each PDI was reduced using TCEP (5 mM final concentration) for 90 min at room temperature. Aliquots of the stock solution were diluted in the incubation mixture (PDIA1 1.6 µM and PDIA3 3.2 µM) containing sodium phosphate buffer (100 mM sodium phosphate, 2 mM EDTA, pH 7.0) added with punicalin/punicalagin (concentration ranging from 0 to 50 µM) and incubated at 37 °C for 1 h. After incubation, an equal volume of the 2× reaction mixture (consisting of DTT 50 μM and human insulin 0.32 mM) was added. Protein activity was evaluated by monitoring the increase in turbidity of the solutions at 600 nm.
as §2

PDIA1 [3] = molecular target: T1, PDIA1; test: Differential scanning fluorimetry (protein thermal shift); assay type: binding; details: PDIA1, compound 20 µM
Procedure: (§3) The effect of punicalin and punicalagin on the stability of both proteins was evaluated by differential scanning fluorimetry (DSF). Initially, PDIA1 and PDIA3 were incubated at 25 °C for 20 min with both substances at 5 µM and 20 µM concentrations. […] The reading was optimized at intervals of 0.2 °C every 5 s. Once the fluorescence profile was obtained, the data were analyzed with the GraphPad prism program, by either fitting data with a Boltzmann equation or calculating the first derivative. In DSF analyses, a gradual increase in fluorescence is observed, due to a conformational change in the protein, which reaches a maximum value and then decreases because of protein precipitation.
(§4) To evaluate Tm, we focused the attention on the main transition, and thus we fitted, with a Boltzmann equation, the data in the range of 25–55 °C for PDIA3 and in the range of 45–70 °C for PDIA1. Again, the two substances show a destabilizing effect, which was more evident for PDIA3 than for PDIA1. In fact, punicalagin and punicalin at a 20 µM concentration cause a shift of Tm of at least 6 °C in the case of PDIA3, while this is approximately 3 °C for PDIA1 (Figure 7).
(§5) Protein stability in the absence and presence of punicalagin/punicalin was tested by means of the fluorescence-based thermal stability assay or differential scanning fluorimetry (DSF) developed by Pantoliano and coworkers. DSF records the fluorescence emission signal from the binding of a dye (SYPRO orange) to the exposed hydrophobic patches upon protein unfolding. Fluorescence measurements were performed using a CFX96 Connect RT-PCR instrument (BioRad, Hercules, CA, USA). Aliquots of 18 μL of protein solution (2 μM), freshly diluted in Tris Buffered saline (50 mM TrisHCl, pH 8.0, 150 mM NaCl) containing 0.1 mM DTT, 0.2 mM EDTA, and 1: 1000 dilution of SYPRO Orange (50 mM stock solution in DMSO), were distributed in a 96-well plate. Sample wells were added with punicalagin or punicalin at a final concentration of 5 uM or 20 μM by adding 2 μL of a 10-fold concentrated freshly prepared stock solution. As control, the protein solution was added with 2 μL of the dilution buffer. A melting point analysis was recorded by increasing the temperature from 25 to 70 °C with an increment of 0.2 °C every 5 s and reading, at each temperature, the fluorescence in fluorescence resonance energy transfer mode (FRET). Each measure was the average of three sample well readings, and each DSF experiment was repeated at least three times. To calculate Tm values, DSF data from the melting curve were exported and fitted to a Boltzmann equation using GraphPad software. The effect of punicalagin and punicalin was evaluated comparing the Tm values in the presence and absence of each molecule.

PDIA3 [4] = molecular target: T2, PDIA3; test: as above; assay type: binding
Procedure: as §3, §4, §5

PDIA1 [5] = molecular target: T1, PDIA1; set-up: method as in Paglia et al. [40]; details: reduced PDIA1; ref Paglia et al. [40]; cited from earlier work
PDIA3 [6] = molecular target: T2, PDIA3; set-up: method as in Paglia et al. [40]; details: reduced PDIA3; ref Paglia et al. [40]; cited from earlier work
PDIA3 [7] = test system: PDIA3; set-up: method as in PMID 37686085; details: 30 µM, 24 h after treatment; ref [34]; cited from earlier work

T1 sequence (P07237 18-508): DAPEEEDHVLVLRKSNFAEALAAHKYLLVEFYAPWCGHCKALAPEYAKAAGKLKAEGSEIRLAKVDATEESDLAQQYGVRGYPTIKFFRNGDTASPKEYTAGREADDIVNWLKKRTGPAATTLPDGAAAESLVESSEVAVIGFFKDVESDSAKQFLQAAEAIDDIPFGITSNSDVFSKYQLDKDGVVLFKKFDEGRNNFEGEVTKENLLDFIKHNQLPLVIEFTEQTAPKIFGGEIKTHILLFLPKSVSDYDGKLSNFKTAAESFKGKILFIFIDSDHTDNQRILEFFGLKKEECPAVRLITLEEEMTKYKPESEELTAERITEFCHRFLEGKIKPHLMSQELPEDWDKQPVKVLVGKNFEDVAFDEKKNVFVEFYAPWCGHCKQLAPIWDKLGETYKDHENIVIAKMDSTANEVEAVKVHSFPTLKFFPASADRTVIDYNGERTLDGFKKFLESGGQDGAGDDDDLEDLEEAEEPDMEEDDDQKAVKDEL

## O=C1O[C@H]2[C@@H]3OC(=O)c4cc(O)c(O)c(O)c4-c4c(O)c(O)c5oc(=O)c6c(c(O)c(O)c7oc(=O)c4c5c76)-c4c(cc(O)c(O)c4O)C(=O)OC[C@H]3OC(O)[C@@H]2OC(=O)c2cc(O)c(O)c(O)c2-c2c1cc(O)c(O)c2O (mixture of isomers) [Punicalagin, punicalagin]
PDIA1 [1]
  IC50: 13.7 µM
PDIA3 [2]
  IC50: 8.8 µM
PDIA1 [3]
  shift towards lower temperature of second main transition (first-derivative graph): about 5 °C
PDIA1 [3]; fit range 45–70 °C
  shift of Tm (destabilizing, Boltzmann fit): approximately 3 °C
PDIA3 [4]; PDIA3, compound 20 µM
  left shift of first transition (first-derivative graph): about 3 °C
  shift towards lower temperature of second transition (first-derivative graph): more than 10 °C
PDIA3 [4]; PDIA3, compound 20 µM, fit range 25–55 °C
  shift of Tm (destabilizing, Boltzmann fit): at least 6 °C
PDIA3 [4]; PDIA3 alone Tm 46 °C
  Tm of PDIA3 after addition of compound: below 40 °C
PDIA1 [5]
  Stern–Volmer constant (KSV): 97.9 ± 2.1 M^−1 × 10^3
PDIA3 [6]
  Stern–Volmer constant (KSV): 157.1 ± 1.9 M^−1 × 10^3
PDIA3 [7]
  formation of PDIA3 protein aggregates: induced the formation of protein aggregates

— article PMC11476419, “Analysis of Punicalin and Punicalagin Interaction with PDIA3 and PDIA1” (International Journal of Molecular Sciences, 2024)
